Reference: paper PMC6374431, “NMR Analysis on Molecular Interaction of Lignin with Amino Acid Residues of Carbohydrate-Binding Module from Trichoderma reesei Cel7A” (Scientific Reports, 2019)

Biological target: T1, TrCBM1 (CBM1 of TrCel7A, cellobiohydrolase I) (Trichoderma reesei, UniProt P62694)
T1 construct: gene cbh1; isolated C-terminal family 1 CBM (36 residues) plus residual residues at N- and C-termini from enterokinase and thrombin cleavage; His tag and GFP removed; E. coli BL21(DE3); 15N-labeled, mass 5255
T1 sequence (P62694 478-513): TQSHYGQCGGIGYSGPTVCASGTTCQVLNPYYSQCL
Experiment: NMR titration, chemical shift perturbation (1H-15N SOFAST-HMQC)
Assay type: binding
Settings: 100 μM 15N-TrCBM1, 100 mM citric acid buffer pH 5.0, 10% D2O, 298 K; cellohexaose 700-5600 μM; flat plane surface and cleft

OC[C@H]1O[C@@H](O[C@H]2[C@H](O)[C@@H](O)[C@H](O[C@H]3[C@H](O)[C@@H](O)[C@H](O[C@H]4[C@H](O)[C@@H](O)[C@H](O[C@H]5[C@H](O)[C@@H](O)[C@H](O[C@H]6[C@H](O)[C@@H](O)C(O)O[C@@H]6CO)O[C@@H]5CO)O[C@@H]4CO)O[C@@H]3CO)O[C@@H]2CO)[C@H](O)[C@@H](O)[C@@H]1O (stereo partly shown) [cellohexaose]
Δδ (CSP): The incremental addition of cellohexaose continuously increased Δδ.
